Paper PMC12482674 (Alzheimer's Research & Therapy, 2025)
Where a name gives a salt, the structure may show the parent alone.

What was measured:
[1] = Phase III; cited from earlier work
[2] = biological target: AD brain-derived tau seeds (Homo sapiens, UniProt P10636, C639S); assay: biochemical; format: biochemical; conditions: for inhibition at 100 µM: read-out: percent inhibition (vehicle AUC 100% minus percent AUC of compound); for percent inhibition (vehicle AUC 100% minus percent AUC of compound): 100 µM
[3] = patients receiving the drug; cited from earlier work
tau peptides = conditions: cited from earlier work
tau oligomers = conditions: mouse models; cited from earlier work
tau = tau (Homo sapiens, UniProt P10636, C639S); assay: Transmission electron microscopy of Tau-SAA end products; format: biochemical; conditions: SAA end products (total fraction) of 100 µM reactions
2N4R = conditions: cited from earlier work
hyperphosphorylated tau = conditions: mouse, in vivo; cited from earlier work

Chain of AD brain-derived tau seeds (P10636 1-352 isoform P10636-2 C233S): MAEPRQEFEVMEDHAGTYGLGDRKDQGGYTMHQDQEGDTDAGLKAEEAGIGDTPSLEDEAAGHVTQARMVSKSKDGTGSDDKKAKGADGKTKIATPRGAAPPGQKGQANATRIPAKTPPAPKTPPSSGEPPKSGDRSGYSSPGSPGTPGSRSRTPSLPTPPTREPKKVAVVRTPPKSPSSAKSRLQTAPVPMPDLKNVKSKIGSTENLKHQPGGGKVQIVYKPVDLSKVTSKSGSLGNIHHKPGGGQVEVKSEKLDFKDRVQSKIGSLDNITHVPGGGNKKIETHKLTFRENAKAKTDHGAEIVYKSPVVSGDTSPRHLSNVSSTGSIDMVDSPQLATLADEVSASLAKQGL
Chain of tau (P10636 1-352 isoform P10636-2 C233S): as above

CN(C)c1ccc2c(c1)Sc1cc(N(C)C)ccc1N2.CS(=O)(=O)O.CS(=O)(=O)O [LMTX]
primary efficacy outcomes [1]: did not reach primary efficacy outcomes

O=S(=O)(O)c1cc(S(=O)(=O)O)c2c(/N=N/c3ccccc3)c(O)ccc2c1 [Orange-G]
inhibition at 100 µM [2]: 39%

CNc1ccc2nc3ccc(N)cc3[s+]c2c1 [azure C]
inhibition at 100 µM [2]: > 95%

CN(C)c1ccc2nc3ccc(=[N+](C)C)cc-3sc2c1 [Methylene Blue]
inhibition at 100 µM [2]: > 99%

O=c1cc(-c2ccccc2)oc2cc(O)c(O)c(O)c12 [baicalein]
inhibition at 100 µM [2]: > 95%

Nc1c(/N=N/c2ccc(-c3ccc(/N=N/c4cc(S(=O)(=O)O)c5ccccc5c4N)cc3)cc2)cc(S(=O)(=O)O)c2ccccc12 [Congo Red, Congo red]
maximum thioflavin fluorescence (ThT Max) [2]: approaching the baseline
inhibition at 100 µM [2]: > 95%

COc1cc(/C=C/C(=O)CC(=O)/C=C/c2ccc(O)c(OC)c2)ccc1O [curcumin]
cognitive outcome [3]: improvements in attention, long-term retrieval, and visual memory
tau and Aβ burden by PET ligand binding [3]: decreased tau and Aβ burden

O=C(/C=C/c1ccc(O)c(O)c1)O[C@H](Cc1ccc(O)c(O)c1)C(=O)O [rosmarinic acid]
inhibition at 100 µM [2]: > 95%

Nc1ccc2nc3ccc(N)cc3[s+]c2c1 [Thionin, thionin]
maximum thioflavin fluorescence (ThT Max) [2]: approaching the baseline
percent inhibition (vehicle AUC 100% minus percent AUC of compound) [2]: over 99%

CC[C@@]1(O)C(=O)OCc2c1cc1n(c2=O)Cc2cc3c(CN(C)C)c(O)ccc3nc2-1 [topotecan]
inhibition of fibrillization of tau peptides (tau peptides): only mildly inhibited
inhibition at 100 µM [2]: 92%

C=CCc1ccc(O)c(-c2ccc(O)c(CC=C)c2)c1 [honokiol]
inhibition at 100 µM [2]: 94%

CO[C@H]1/C=C/O[C@@]2(C)Oc3c(C)c(O)c4c(O)c(c(/C=N/N5CCN(C)CC5)c(O)c4c3C2=O)NC(=O)/C(C)=C\C=C\[C@H](C)[C@H](O)[C@@H](C)[C@@H](O)[C@@H](C)[C@H](OC(C)=O)[C@@H]1C [Rifampin]
spread of tau oligomers and cognitive function (tau oligomers): limit the spread of tau oligomers and improve cognitive function
aggregates seen by TEM (tau): devoid of fibrillar amyloid structures

CCN(CC)CCNC(=O)c1c(C)[nH]c(/C=C2\C(=O)Nc3ccc(F)cc32)c1C [Sunitinib]
inhibition at 100 µM [2]: 98.6%
aggregates seen by TEM (tau): widespread amyloid-like aggregates

Cc1ccc(C(=O)c2cc(O)c(O)c([N+](=O)[O-])c2)cc1 [tolcapone]
inhibition at 100 µM [2]: 78%

COc1ccc2c(c1)c(CC(=O)O)c(C)n2C(=O)c1ccc(Cl)cc1 [Indomethacin]
aggregates seen by TEM (tau): widespread amyloid-like aggregates

COc1cccc2c1C(=O)c1c(O)c3c(c(O)c1C2=O)C[C@@](O)(C(=O)CO)C[C@@H]3O[C@H]1C[C@H](N)[C@@H](O)[C@H](C)O1 [Epirubicin]
IC50 [2]: 6.6 µM
inhibition at 100 µM [2]: > 99%

Brc1cccc(-c2cc(-c3ccc4c(c3)OCO4)[nH]n2)c1 [anle138b]
inhibition of spontaneous 2N4R aggregate formation (2N4R): inhibits the in vitro formation of spontaneous 2N4R aggregates
inhibition at 100 µM [2]: -25.9%
hyperphosphorylated tau burden and survival (hyperphosphorylated tau): reduces hyperphosphorylated tau burden and prolongs survival

O=C(c1cc(O)c(O)c(O)c1)c1ccc(O)c(O)c1O [Exifone]
IC50 [2]: 11.2 µM
inhibition at 100 µM [2]: > 95%

CNc1ccc2nc3ccc(=[N+](C)C)cc-3sc2c1.[Cl-] [azure B]
percent inhibition (vehicle AUC 100% minus percent AUC of compound) [2]: > 95%

CC(=O)c1c(O)c(C)c(O)c2c1OC1=CC(=O)C(C(C)=O)C(=O)C12C (stereo not drawn) [usnic acid]
inhibition at 100 µM [2]: 21.5%

CN(C)c1ccc2nc3ccc(N)cc3[s+]c2c1.[Cl-] [Azure A, azure A]
maximum thioflavin fluorescence (ThT Max) [2]: approaching the baseline
percent inhibition (vehicle AUC 100% minus percent AUC of compound) [2]: > 95%

CCN(CC)CCCC(C)Nc1c2ccc(Cl)cc2nc2ccc(OC)cc12 (stereo not drawn) [quinacrine hydrochloride]
maximum thioflavin fluorescence (ThT Max) [2]: reduced ThT Max across all dilutions
time to threshold (TTT) [2]: only delay TTT at higher dilutions

Oc1cc(O)c2c(c1)O[C@H](c1ccc(O)c(O)c1)[C@@H](O)C2 [(+)-catechin]
percent inhibition (vehicle AUC 100% minus percent AUC of compound) [2]: 89%

O=c1c(O)c(-c2cc(O)c(O)c(O)c2)oc2cc(O)cc(O)c12 [myricetin]
inhibition at 100 µM [2]: > 95%
